Assays:
Type in all cases: cell-based
JAK/STAT path = test: Western blotting of JAK/STAT path proteins in liver cancer cells; conditions: 10^-6 M U0126 for 4 hours, then MPA+leptin for 3 hours
Procedure: Please refer to FIG. 11, which is a view showing expression of JAK/STAT path after applied with a drug. As shown in the figure, the preferred embodiment analyzes related proteins of liver cancer cells through western blotting after applied with MPA+leptin for 24 hours.
(§1) Please refer to FIG. 13A and FIG. 13A, which are views showing expressions of proteins of JAK/STAT path and proteins of MAPK path after applied with a drug for a short time. As shown in the figures, the preferred embodiment processes liver cancer cells with high-dose leptin, high-dose MPA and high-dose leptin combined with high-dose MPA for 30 minutes. Then, related JAK/STAT proteins are collected for analyzing their expressions through western blotting.
Please refer to FIG. 14, which is a view showing reduced p-STAT3 degradation by suppressing the ERK1/2 activation and the PIAS3 expression. […] The preferred embodiment uses a 10^−6M p-ERK1/2 inhibitor (U0126) for 4 hours before a drug is applied; then, liver cancer cells are applied with the drug of MPA+leptin for 3 hours to collect cellular proteins for analyzing expression of related proteins through western blotting. […] As a conclusion, MPA activates ERK1/2 to indirectly induce PIAS3 expression for suppressing p-STAT3 (Tyr705) for cell apoptosis, where leptin enhances activation of ERK1/2 with MPA for increasing cell apoptosis.
(§2) Please refer to FIG. 15A to FIG. 16B, which are views showing cells containing very much leptin within; suppressed growth of the cells by using MPA; and STAT3- and MAPK-signal paths of the cells after MPA is applied. […] Then, after the cells are processed with 10^−4M MPA for 24 hours, cell growth is analyzed through XTT assay. […] Then, after the cells are processed with 10^−4 M MPA for 24 hours, JAK/STAT-related proteins are analyzed through western blotting.

MAPK path = test: Western blotting of MAPK path proteins in liver cancer cells; conditions: 10^-6 M U0126 for 4 hours, then MPA+leptin for 3 hours
Text: Please refer to FIG. 12, which is a view showing expression of MAPK path after applied with a drug. As shown in the figure, after proteins for the JAK2/STAT3 path are suppressed, the preferred embodiment analyzes expression of the proteins through western blotting.
as §1
Please refer to FIG. 14, which is a view showing reduced p-STAT3 degradation by suppressing the ERK1/2 activation and the PIAS3 expression. […]
as §2

[1] = tested on: epithelial cell line of normal liver (THLE-3); test: XTT assay, survival of normal liver epithelial cell line; conditions: THLE-3, FIG. 17A
Procedure: (§3) Please refer to FIG. 17A to FIG. 18B, which are views showing epithelial cell line of normal liver treated with MPA+leptin for 24 hours and 48 hours respectively; and views showing STAT3- and MAPK-related signal paths after treating cell line of normal liver with MPA+leptin. As shown in the figures, after epithelial cell line of normal liver (THLE-3) is applied with MPA+leptin for […], MPA+leptin's effect on cell growth (i.e. survival rate) is analyzed through XTT assay. […] Besides, in FIG. 18A and FIG. 18B, protein expressions for STAT- and MAPK-related signal paths are analyzed.

[2] = tested on: STAT- and MAPK-related signal paths; test: Protein expression of STAT- and MAPK-related signal paths in normal liver cell line
Procedure: as §3

[3] = tested on: liver cancer cells (hepatocellular carcinoma cell line); test: XTT assay, growth of liver cancer cells; conditions: high-dose leptin (100 ng), 24 hours
Procedure: Please refer to FIG. 2, which is a view showing leptin's effect on growth of liver cancer cells. As shown in the figure, for acquiring effect of leptin on liver cancer cells, the preferred embodiment uses leptin having different doses, where the high-dose leptin has 100 nano-grams (ng) and the low-dose leptin has 10 ng. The 10 ng leptin is conformed to the physiological concentration of normal human body for observing effect of leptin on the cells. In the other hand, the 100 ng leptin is used to show whether a higher levels of leptin obtains a higher effect on the cells.
Please refer to FIG. 3, which is a view showing MPA's effect on growth of liver cancer cells. As shown in the figure, the preferred embodiment applies MPA having different doses to liver cancer cells.
Please refer to FIG. 4, which is a view showing effect of MPA+leptin on growth of liver cancer cells. As shown in the figure, the preferred embodiment applies MPA combined with leptin to liver cancer cells, where MPA has different doses and leptin has different doses.
Please refer to FIG. 9, which is a view showing reduced effect of MPA+leptin by suppressing leptin receptor expression. As shown in the figure, a 20 nano-moles (nM) of leptin receptor, siRNA, is transferred to cells to be cultured a day and is cultured in a serum-free medium for the next day. Then, the cells are processed with MPA+leptin for 24 hours to be analyzed through XTT assay. […] Thus, it is confirmed that leptin enhances MPA's suppression on the cells through the leptin receptor.
Please refer to FIG. 10A and FIG. 10B, which are views showing apoptosis of cells on increasing expression of leptin receptor and expression of progesterone receptor respectively. As shown in the figures, the preferred embodiment makes ob-Rb plasmid transfected to cells to be cultured a day and is cultured in a serum-free medium for the next day. Then, the cells are processed with MPA+leptin for 24 hours to be analyzed through XTT assay. […] Besides, the long-form Ob-R enhances expression of the progesterone receptor. Again, the preferred embodiment makes PgR plasmid transfected to cells to be cultured a day and is cultured in a serum-free medium for the next day. Then, the cells are processed with MPA+leptin for 24 hours to be analyzed through XTT assay.
Please refer to FIG. 15A to FIG. 16B, which are views showing cells containing very much leptin within; suppressed growth of the cells by using MPA; and STAT3- and MAPK-signal paths of the cells after MPA is applied. As shown in the figures, while leptin is added from outside in state 13 to suppress liver cancer cells with MPA+leptin, the preferred embodiment here transfers expression plasmid of leptin (pcLeptin) to liver cancer cells to be cultured for a day; and a serum-free medium is used for the next day. Then, after the cells are processed with 10^−4M MPA for 24 hours, cell growth is analyzed through XTT assay. In FIG. 15A, leptin gene is transferred to cells for a short time for obtaining very much leptin within the cells by themselves. After applying MPA to the cells for 24 hours, it is confirmed that MPA's suppression on liver cancer cells is enhanced by a lot of leptin self-generated within the cells. Moreover, after obtaining a lot of leptin, medium is collected for immunoprecipitation and further western blotting. […] Then, after the cells are processed with 10^−4 M MPA for 24 hours, JAK/STAT-related proteins are analyzed through western blotting.

Row | Molecule | expression of p-STAT3 (Tyr705) (JAK/STAT path) | PIAS3 (MAPK path) | phosphorylation of ERK1/2 (MAPK path) | effect on survival rate of, and poisoning of, normal liver epithelial cells [1] | effect on STAT- and MAPK-related signal proteins [2] | effect on growth of liver cancer cells [3]
1 | N#CC(=C(/N)Sc1ccccc1N)/C(C#N)=C(\N)Sc1ccccc1N [U0126] | suppressed | not induced | suppressed | – | – | –
2 | leptin: hormone of single-chain protein; adipokine generated by adipocyte | – | – | – | no obvious effect | no obvious effect | no obvious effect

Reference: patent publication US20110098219A1, “System for Curing Hepatic Cancer with Leptin” (KAOHSIUNG MEDICAL UNIVERSITY, priority 2009, published 2011)
